What was measured:
Assay in all cases: relative viability (nuclei count vs DMSO), 5 days (fraction); higher = more cells survive
[1] = compound: O=C(Nc1cc(C(F)(F)F)cc(C(F)(F)F)c1)c1cc(Cl)ccc1O [IMD-0354] + Cc1nc(Nc2ncc(C(=O)Nc3c(C)cccc3Cl)s2)cc(N2CCN(CCO)CC2)n1 [Dasatinib] (partner 0.075 µM)
Summary of the method: (§1)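 For relative viability, nuclei counts in treated wells were divided by those in vehicle wells. Lung cancer cell lines had been pin-tool dosed in 1536-well plates the day after seeding and cultured for 5 days, then fixed and stained in one step (final 0.05% Triton X-100, 1% formaldehyde, 1 ug/ml Hoechst) and imaged at 4×. Doses were one drug alone or a fixed anchor-drug dose plus five library-drug doses (not always all listed) in √10 steps, and values are duplicate-plate medians.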

[2] = compound: Cc1cnc(CNC(=O)c2c(=O)c3ccc(N4CCCN(C)CC4)nc3n3c2sc2ccccc23)cn1 [CX-5461] + Nc1ncn([C@H]2C[C@H](O)[C@@H](CO)O2)c(=O)n1 [Decitabine] (partner 2 µM)
Summary of the method: as §1

[3] = compound: O=C(Nc1cc(C(F)(F)F)cc(C(F)(F)F)c1)c1cc(Cl)ccc1O [IMD-0354] + CCNC(=O)c1noc(-c2cc(C(C)C)c(O)cc2O)c1-c1ccc(CN2CCOCC2)cc1 [Luminespib] (partner 0.01 µM)
Summary of the method: as §1

[4] = compound: Cc1cnc(CNC(=O)c2c(=O)c3ccc(N4CCCN(C)CC4)nc3n3c2sc2ccccc23)cn1 [CX-5461] + CC(C)C[C@H](NC(=O)[C@H](Cc1ccccc1)NC(=O)c1cnccn1)B(O)O [Bortezomib] (partner 0.002 µM)
Summary of the method: as §1

With NCI-H1666 the relative viability ([1]; first compound 0.04 µM) was 0.94, the relative viability ([1]; first compound 0.1265 µM) was 0.912 and the relative viability ([1]; first compound 0.4 µM) was 0.651. It also gave a relative viability ([1]; first compound 1.265 µM) of 0.345, a relative viability ([1]; first compound 4 µM) of 0.351 and a relative viability ([2]; first compound 0.01 µM) of 0.768. It also gave a relative viability ([2]; first compound 0.03162 µM) of 0.671, a relative viability ([2]; first compound 0.1 µM) of 0.737 and a relative viability ([2]; first compound 0.3162 µM) of 0.701. For the same cell line, the relative viability ([2]; first compound 1 µM) was 0.731, the relative viability ([3]; first compound 0.04 µM) was 1.06 and the relative viability ([3]; first compound 0.1265 µM) was 1.06. It also gave a relative viability ([3]; first compound 0.4 µM) of 0.963, a relative viability ([3]; first compound 1.265 µM) of 0.499 and a relative viability ([3]; first compound 4 µM) of 0.369. The relative viability ([4]; first compound 0.01 µM) was 0.839, the relative viability ([4]; first compound 0.03162 µM) was 0.741 and the relative viability ([4]; first compound 0.3162 µM) was 0.758. For the same cell line, the relative viability ([4]; first compound 1 µM) was 0.505.
In the case of NCI-H1734, the relative viability ([1]; first compound 0.04 µM) is reported as 0.516, the relative viability ([1]; first compound 0.1265 µM) is reported as 0.4 and the relative viability ([1]; first compound 0.4 µM) is reported as 0.343. For the same cell line, the relative viability ([1]; first compound 1.265 µM) was 0.195, the relative viability ([1]; first compound 4 µM) was 0.134 and the relative viability ([2]; first compound 0.01 µM) was 0.509. The relative viability ([2]; first compound 0.03162 µM) was 0.489, the relative viability ([2]; first compound 0.1 µM) was 0.557 and the relative viability ([2]; first compound 0.3162 µM) was 0.483. For the same cell line, the relative viability ([2]; first compound 1 µM) was 0.483, the relative viability ([3]; first compound 0.04 µM) was 0.201 and the relative viability ([3]; first compound 0.1265 µM) was 0.181. It also gave a relative viability ([3]; first compound 0.4 µM) of 0.2, a relative viability ([3]; first compound 1.265 µM) of 0.147 and a relative viability ([3]; first compound 4 µM) of 0.143. The relative viability ([4]; first compound 0.01 µM) was 0.948, the relative viability ([4]; first compound 0.03162 µM) was 1.18 and the relative viability ([4]; first compound 0.1 µM) was 0.838. It also gave a relative viability ([4]; first compound 0.3162 µM) of 0.751 and a relative viability ([4]; first compound 1 µM) of 0.45.
Cell Line NCI-H1755 has a relative viability ([1]; first compound 0.04 µM) of 0.438, a relative viability ([1]; first compound 0.1265 µM) of 0.461 and a relative viability ([1]; first compound 0.4 µM) of 0.395. It also gave a relative viability ([1]; first compound 1.265 µM) of 0.243, a relative viability ([1]; first compound 4 µM) of 0.34 and a relative viability ([2]; first compound 0.01 µM) of 0.782. For the same cell line, the relative viability ([2]; first compound 0.03162 µM) was 0.763, the relative viability ([2]; first compound 0.1 µM) was 0.66 and the relative viability ([2]; first compound 0.3162 µM) was 0.687. It also gave a relative viability ([2]; first compound 1 µM) of 0.69, a relative viability ([3]; first compound 0.04 µM) of 0.321 and a relative viability ([3]; first compound 0.1265 µM) of 0.515. It also gave a relative viability ([3]; first compound 0.4 µM) of 0.312, a relative viability ([3]; first compound 1.265 µM) of 0.456 and a relative viability ([3]; first compound 4 µM) of 0.289. The relative viability ([4]; first compound 0.01 µM) was 1.05, the relative viability ([4]; first compound 0.03162 µM) was 1.03 and the relative viability ([4]; first compound 0.1 µM) was 0.972. For the same cell line, the relative viability ([4]; first compound 0.3162 µM) was 0.99 and the relative viability ([4]; first compound 1 µM) was 0.877.
NCI-H1792 gave a relative viability ([1]; first compound 0.04 µM) of 0.906, a relative viability ([1]; first compound 0.1265 µM) of 0.69 and a relative viability ([1]; first compound 0.4 µM) of 0.545. It also gave a relative viability ([1]; first compound 1.265 µM) of 0.406, a relative viability ([1]; first compound 4 µM) of 0.416 and a relative viability ([2]; first compound 0.01 µM) of 0.664. It also gave a relative viability ([2]; first compound 0.03162 µM) of 0.67, a relative viability ([2]; first compound 0.1 µM) of 0.646 and a relative viability ([2]; first compound 0.3162 µM) of 0.542. It also gave a relative viability ([2]; first compound 1 µM) of 0.534, a relative viability ([3]; first compound 0.04 µM) of 0.465 and a relative viability ([3]; first compound 0.1265 µM) of 0.411. The relative viability ([3]; first compound 0.4 µM) was 0.35, the relative viability ([3]; first compound 1.265 µM) was 0.302 and the relative viability ([3]; first compound 4 µM) was 0.258. The relative viability ([4]; first compound 0.01 µM) was 0.935, the relative viability ([4]; first compound 0.03162 µM) was 1.16 and the relative viability ([4]; first compound 0.1 µM) was 0.966. The relative viability ([4]; first compound 0.3162 µM) was 0.965 and the relative viability ([4]; first compound 1 µM) was 0.848.
With NCI-H1915 the relative viability ([1]; first compound 0.04 µM) was 0.31, the relative viability ([1]; first compound 0.1265 µM) was 0.322 and the relative viability ([1]; first compound 0.4 µM) was 0.129. For the same cell line, the relative viability ([1]; first compound 1.265 µM) was 0.109, the relative viability ([1]; first compound 4 µM) was 0.14 and the relative viability ([2]; first compound 0.01 µM) was 0.266. It also gave a relative viability ([2]; first compound 0.03162 µM) of 0.259, a relative viability ([2]; first compound 0.1 µM) of 0.284 and a relative viability ([2]; first compound 0.3162 µM) of 0.244. It also gave a relative viability ([2]; first compound 1 µM) of 0.283, a relative viability ([3]; first compound 0.04 µM) of 0.609 and a relative viability ([3]; first compound 0.1265 µM) of 0.665. For the same cell line, the relative viability ([3]; first compound 0.4 µM) was 0.296, the relative viability ([3]; first compound 1.265 µM) was 0.355 and the relative viability ([3]; first compound 4 µM) was 0.226. The relative viability ([4]; first compound 0.01 µM) was 1.03, the relative viability ([4]; first compound 0.03162 µM) was 1.06 and the relative viability ([4]; first compound 0.1 µM) was 0.989. For the same cell line, the relative viability ([4]; first compound 0.3162 µM) was 1.02 and the relative viability ([4]; first compound 1 µM) was 0.891.
NCI-H1975 gave a relative viability ([1]; first compound 0.04 µM) of 0.421, a relative viability ([1]; first compound 0.1265 µM) of 0.398 and a relative viability ([1]; first compound 0.4 µM) of 0.233. It also gave a relative viability ([1]; first compound 1.265 µM) of 0.128, a relative viability ([1]; first compound 4 µM) of 0.135 and a relative viability ([2]; first compound 0.01 µM) of 0.404. It also gave a relative viability ([2]; first compound 0.03162 µM) of 0.36, a relative viability ([2]; first compound 0.1 µM) of 0.424 and a relative viability ([2]; first compound 0.3162 µM) of 0.447. For the same cell line, the relative viability ([2]; first compound 1 µM) was 0.276, the relative viability ([3]; first compound 0.04 µM) was 0.24 and the relative viability ([3]; first compound 0.1265 µM) was 0.197. For the same cell line, the relative viability ([3]; first compound 0.4 µM) was 0.183, the relative viability ([3]; first compound 1.265 µM) was 0.153 and the relative viability ([3]; first compound 4 µM) was 0.162. For the same cell line, the relative viability ([4]; first compound 0.01 µM) was 0.361, the relative viability ([4]; first compound 0.03162 µM) was 0.357 and the relative viability ([4]; first compound 0.1 µM) was 0.357. It also gave a relative viability ([4]; first compound 0.3162 µM) of 0.358 and a relative viability ([4]; first compound 1 µM) of 0.154.
Work on NCI-H1993 yielded a relative viability ([1]; first compound 0.04 µM) of 0.562, a relative viability ([1]; first compound 0.1265 µM) of 0.652 and a relative viability ([1]; first compound 0.4 µM) of 0.448. For the same cell line, the relative viability ([1]; first compound 1.265 µM) was 0.543, the relative viability ([1]; first compound 4 µM) was 0.51 and the relative viability ([2]; first compound 0.01 µM) was 1.37. For the same cell line, the relative viability ([2]; first compound 0.03162 µM) was 0.64, the relative viability ([2]; first compound 0.1 µM) was 0.668 and the relative viability ([2]; first compound 0.3162 µM) was 0.29. It also gave a relative viability ([2]; first compound 1 µM) of 0.577, a relative viability ([3]; first compound 0.04 µM) of 0.852 and a relative viability ([3]; first compound 0.1265 µM) of 0.701. The relative viability ([3]; first compound 0.4 µM) was 0.623, the relative viability ([3]; first compound 1.265 µM) was 0.483 and the relative viability ([3]; first compound 4 µM) was 0.619. The relative viability ([4]; first compound 0.01 µM) was 1.09, the relative viability ([4]; first compound 0.03162 µM) was 1.18 and the relative viability ([4]; first compound 0.1 µM) was 1.14. It also gave a relative viability ([4]; first compound 0.3162 µM) of 0.944 and a relative viability ([4]; first compound 1 µM) of 0.937.
Cell Line NCI-H2009 has a relative viability ([1]; first compound 0.04 µM) of 0.367, a relative viability ([1]; first compound 0.1265 µM) of 0.292 and a relative viability ([1]; first compound 0.4 µM) of 0.263. The relative viability ([1]; first compound 1.265 µM) was 0.109, the relative viability ([1]; first compound 4 µM) was 0.0808 and the relative viability ([2]; first compound 0.01 µM) was 0.41. It also gave a relative viability ([2]; first compound 0.03162 µM) of 0.374, a relative viability ([2]; first compound 0.1 µM) of 0.335 and a relative viability ([2]; first compound 0.3162 µM) of 0.37. For the same cell line, the relative viability ([2]; first compound 1 µM) was 0.308, the relative viability ([3]; first compound 0.04 µM) was 1.09 and the relative viability ([3]; first compound 0.1265 µM) was 0.923. For the same cell line, the relative viability ([3]; first compound 0.4 µM) was 0.675, the relative viability ([3]; first compound 1.265 µM) was 0.148 and the relative viability ([3]; first compound 4 µM) was 0.159. It also gave a relative viability ([4]; first compound 0.01 µM) of 1.05, a relative viability ([4]; first compound 0.03162 µM) of 1.08 and a relative viability ([4]; first compound 0.1 µM) of 0.644. For the same cell line, the relative viability ([4]; first compound 0.3162 µM) was 0.867 and the relative viability ([4]; first compound 1 µM) was 0.492.

From the supplement of paper PMC10307832
